Patent US11090349B2, “Plant extract obtained from Morus plant leaves, compositions containing same, method of extraction and uses thereof” (Botanic Century (Beijing) Co. Ltd., priority 2009, dated 2021)

Experiments:
B16 melanoma cells [1] = experiment: Cell viability, MTT assay; type: cell-based; conditions: for growth inhibition of B16 melanoma cells (MTT): below the concentration of 200 ppm
Description: Cell survival was measured using the MTT assay, which is based on the conversion of 3-(4,5-dimethylthiazol-2-yl)-2,5-diphenyltetrazolium bromide to MTT-formazan crystal by mitochondrial enzyme in viable cells. MTT was freshly prepared at 2 mg/ml in phosphate-buffered saline (PBS). […] Aliquots of 20 μl of MTT stock solution were added to the well at different time points throughout the experiment, and the plate was incubated at 37° C. for 4 h in a humidified 5% CO2 incubator. After 4 h, the formazan crystals of these cells were solubilized in 100 μl DMSO by gentle shaking. After 10 min, the amount of formazan was quantified spectrophotometrically using an ELISA plate reader at 540 nm.

tyrosinase [2] = experiment: Indirect effect on tyrosinase activity, B16 cells cultured with sample for three days; type: cell-based; conditions: B16 cells incubated three days with test compound before extraction
Description: (§1) The aim was to investigate the impact and mechanisms of action of the test samples on the TYR activity in melanoma cell line B16.
(§2) B16 melanoma cells were washed with phosphate-buffered saline and collected in a centrifuge tube. After centrifugation, WIP-lysis buffer containing phenyl-methylsulfonyl fluoride (PMSF) was added to the cell pellet to lyse the cells and the solution was left to stand on ice for 30 minutes. The solution was subsequently centrifuged for 10 min, at 12000 g, at 4° C., with the supernatant (cell extract) containing the cellular components being retained for assay purposes.

tyrosinase [3] = molecular target: T1, tyrosinase (Mus musculus, UniProt P11344); experiment: Direct effect on tyrosinase catalytic activity in B16 cell extract; type: biochemical; conditions: incubated 1 hour at 37° C., L-dopa
T1 construct: supernatant (cell extract) containing the cellular components being retained for assay purposes; endogenous in cells; host or cells: B16 melanoma cells
T1 sequence (P11344 19-533): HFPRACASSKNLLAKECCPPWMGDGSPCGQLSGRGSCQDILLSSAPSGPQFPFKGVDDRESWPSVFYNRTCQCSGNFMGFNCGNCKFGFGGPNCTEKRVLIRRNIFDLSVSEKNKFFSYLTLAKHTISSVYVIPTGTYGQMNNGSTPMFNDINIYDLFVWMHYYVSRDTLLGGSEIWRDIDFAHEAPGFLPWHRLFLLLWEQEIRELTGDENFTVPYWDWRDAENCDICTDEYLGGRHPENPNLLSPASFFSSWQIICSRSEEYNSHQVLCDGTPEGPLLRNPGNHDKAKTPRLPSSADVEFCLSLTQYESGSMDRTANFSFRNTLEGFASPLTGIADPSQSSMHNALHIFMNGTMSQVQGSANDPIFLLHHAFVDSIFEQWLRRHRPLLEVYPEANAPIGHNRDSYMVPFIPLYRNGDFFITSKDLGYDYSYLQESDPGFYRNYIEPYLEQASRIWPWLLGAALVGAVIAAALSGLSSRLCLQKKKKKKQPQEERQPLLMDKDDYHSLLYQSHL
Description: as §1, §2
The plate was incubated at 37° C. for 1 hour, and then 80 μl L-dopa was added to each well. The absorbance (492 nm) of each well was recorded at 5 minute intervals for 30 minutes at 37° C. using a microplate reader.

B16 melanoma cells [4] = experiment: Melanin content in B16 melanoma cells; type: cell-based; conditions: different concentrations
Description: The aim was to investigate the impact of the test samples on melanin content of melanoma cell line B16. […] The method was as set out below: • 1. Harvest the melanoma B16 cells at Log phase and adjust the cell suspension to an appropriate concentration, divide into 24 well plates and allow the cells to adhere to the walls. • 2. […] Add 250 μl WIP lysis buffer and allow to lyse in an ice bath, vortex mixing once every 5 min for 4-5 times. • 4. Centrifuge for 10 min at 12000 rpm at 4° C. Discard the supernatant and dissolve the precipitate with 400 μl 1N NaOH and keep it in a 80° C. water bath for 1 hour. • 5. Use a microplate reader to measure OD value at 405 nm, and calculate the relative content. Results and discussion: The B16 melanoma cells were seeded at a density of 4×10^4 cell per well of 24-well culture plates, incubated at 37° C. under 5% CO2 atmosphere for 24 h. […] The cells were washed with phosphate-buffered saline, collected in centrifuge tube. After centrifugation, cell pellets were disrupted in WIP lysis buffer containing phenylmethylsulfonyl fluoride (PMSF) on ice for 30 min. The solution was centrifuged for 10 min at 12000 g at 4° C., the pellets were dissolved in 1N NaOH by boiling for 1 h at 70° C. The melanin content was assayed at 405 nm in a spectrophotometer.

Wistar rats = experiment: Blood glucose of Wistar rats after starch meal; type: in vivo, Wistar rat; conditions: positive control 25 mg/kg
Description: The reagents and apparatus are set out below: • (1) Mulberry leaf extract of Example 1 • (2) Saline • (3) Miglitol standard reference chemical • (4) 64 Wistar rats • (5) Johnson's One Touch Ultra blood glucose meter and Code 9 blood glucose test strips The method used was as set out below:
Animals received Morus extract via intraperitoneal injection (15 mg/kg or 30 mg/kg) or intragastrically (25 mg/kg or 50 mg/kg). Miglitol (Glyset®) (25 mg/kg), an α-glucosidase inhibitor approved for type-2 diabetes was used as a positive control. Fasted blood-sugar levels were recorded as a baseline, and blood sugar levels were measured at time intervals 05.hr, 1 hr and 2 hrs after receiving a starch meal. The animals were dosed with Morus extract prior to receiving the starch meal.

Compound | growth inhibition of B16 melanoma cells (MTT) (B16 melanoma cells [1]) | indirect effect on tyrosinase activity (tyrosinase [2]) | direct effect on tyrosinase activity (tyrosinase [3]) | content of melanin compared to the control (B16 melanoma cells [4]) | Blood glucose 0.5 h after giving starch (Wistar rats) [mmol/L] | Blood glucose 1 h after giving starch (Wistar rats) [mmol/L] | Blood glucose 2 h after giving starch (Wistar rats) [mmol/L] | Fasted Glucose (Wistar rats; baseline) [mmol/L] | concentration above which viability of the cell decreased (B16 melanoma cells [1]; B16 melanoma cell)
OCC1NCC(O)C(O)C1O (stereo not shown) [DNJ, 1-deoxynojirimycin] | no growth inhibition | dose-dependent decrease in tyrosinase activity | no effect on tyrosinase activity | decreased significantly in a dose-dependent manner | – | – | – | – | –
OCCN1C[C@H](O)[C@@H](O)[C@H](O)[C@H]1CO [Miglitol] | – | – | – | – | 2.27 ± 0.71 | 2.98 ± 0.52 | 2.69 ± 0.35 | 3.04 ± 0.74 | –
OC[C@H]1O[C@@H](Oc2ccc(O)cc2)[C@H](O)[C@@H](O)[C@@H]1O [arbutin] | – | no effect on tyrosinase activity | reduced the activity of tyrosinase in a dose-dependent manner | – | – | – | – | – | –
O=C1O[C@H]([C@@H](O)CO)C([O-])=C1OP(=O)([O-])[O-].O=C1O[C@H]([C@@H](O)CO)C([O-])=C1OP(=O)([O-])[O-].[Mg+2].[Mg+2].[Mg+2] [VC-PMG, magnesium L-ascorbyl-2-phosphate] | no growth inhibition | – | – | decreased significantly in a dose-dependent manner | – | – | – | – | over 200 ppm
